Values after ≈ are worked out from the molar mass of the structure shown. “Also recorded” adds a separate entry of the source. Counter-ions that a name gives are not always drawn. Like-named read-outs stand apart in the source and are kept apart here.
What was measured:
Format in all cases: physicochemical
[1] = Dynamic Vapor Sorption analysis (DVS), hygroscopicity; conditions: for Hygroscopicity by DVS: 25° C./0-90% RH change; for form change by XRPD after DVS: after 0-90% RH; for Hygroscopicity: weight increase at 80% RH, 25° C.; for moisture uptake: 0-90% RH change by DVS
Method: Dynamic Vapor Sorption Analysis (DVS)
• Instrument: DVS Intrinsic, Surface Measurement Systems • Parameters: 25° C., 0-90-0% RH for 2 cycles

[2] = Water solubility of free form solid states at room temperature; conditions: for XRPD Pattern (solubility measured on); form in water: suspended in water, XRPD after 1 day, PLM after 5 days; for form after suspension in water (microscopic images): five days, room temperature
Method: Example 4. Water Solubility of Free Form Solid States at Room Temperature
The samples were shaken at 25° C., 200 rpm. XRPD (taken after the crystalline forms were mixed with water, and after 1 day suspended in water) and PLM (after 5 days) were recorded. […] Table 13 summarizes the water solubility of crystalline forms C and F.

[3] = Form stability of crystalline form F in 0.5% methylcellulose (400 cps)/0.02% sodium lauryl sulfate
Method: The samples were evaluated at designated time points and PLM images were recorded up to 7 days.

[4] = Storage stability of the crystalline forms (25° C./60% RH, 40° C./75% RH); conditions: for XRPD of the samples after exposure vs t=0: 25° C./60% RH and 40° C./75% RH, closed and open vial, 1, 2 and 4 weeks; for appearance after exposure / solid-form stability (XRPD): one-week exposure to 75% RH at 40° C.
Method: Example 8. Storage Stability of the Crystalline Forms
The forms were evaluated with a closed vial and an open vial.
Crystalline Hydrogen Sulfate Form B. […] Approximately 30 mg of crystalline hydrogen sulfate form B was weighed into a 4 mL vial and covered with a KIMWIPE. […]
Crystalline Sulfate Form A. […] Approximately 30 mg of crystalline sulfate form A was weighed into a 4 mL vial and covered with a KIMWIPE. […]

[5] = Form stability of crystalline hydrogen sulfate forms A and B in buffered 0.5% methylcellulose/0.02% sodium lauryl sulfate
Method: Example 7. Form Stability of Crystalline Hydrogen Sulfate Forms A and B in Buffered 0.5% Methylcellulose (v/v) (400 cps)/0.02% Sodium Lauryl Sulfate (v/v)
Crystalline hydrogen sulfate form A was used for form stability studies in 0.5% methylcellulose (v/v) (400 cps)/0.02% sodium lauryl sulfate (v/v) with citrate buffer (pH 4.5) with a concentration of 0.1 mg/mL, 0.2 mg/mL, 0.5 mg/mL and 1 mg/mL with and without stirring. HPLC purity was obtained for the solutions at 3 and 7 days.
An additional sample of crystalline hydrogen sulfate form A in the same buffered formulation was prepared with a concentration of 1 mg/ml and stirred at 500 rpm at room temperature. The sample was monitored every hour for form assessment. The solution was nearly clear at the first 3 hours.

[6] = as above; conditions: 10 mg in 10 mL MC/SLS with (pH 4.5) and without sodium citrate buffer, 500 rpm, room temperature, overnight
[7] = Dynamic Vapor Sorption analysis (DVS), hygroscopicity; conditions: 2-95% RH
[8] = 25° C./60% RH, t = 4 weeks, open vial
[9] = 25° C./60% RH, t = 7 d, open vial
[10] = 25° C./60% RH, t = 14 d, open vial
[11] = 40° C./75% RH, t = 4 weeks, closed vial
[12] = 40° C./75% RH, t = 4 weeks, open vial
[13] = 40° C./75% RH, t = 7 d, open vial
[14] = 40° C./75% RH, t = 14 d, open vial

SMILES: C[C@@H]1COCCN1c1cc([C@]2(O)C[C@H]3CC[C@@H](C2)O3)c2cnn(-c3cc[nH]n3)c2n1 [Crystalline form B]
- Hygroscopicity by DVS [1]: slightly hygroscopic
- form change by XRPD after DVS [1]: did not change
- Hygroscopicity [1]: Slightly hygroscopic (e.g., ≥0.2% and <2% (Slightly hygroscopic (e.g., ≥0.2% and <2% weight increase at 80% RH, 25° C.))
- XRPD Pattern (solubility measured on); form in water ([2]; 25° C.): converted to crystalline form C
- solubility ([2]; water, 25 °C, water, thermodynamic from solid, water, 25° C., label = starting material, measured on the form named in the XRPD Pattern column, read-out: Solubility): 50 µg/mL (≈ 122 µM)
- form after suspension in water (microscopic images) ([2]; water): converted to crystalline form C

SMILES: C[C@@H]1COCCN1c1cc([C@]2(O)C[C@H]3CC[C@@H](C2)O3)c2cnn(-c3cc[nH]n3)c2n1 [Crystalline form C]
- Hygroscopicity by DVS [1]: slightly hygroscopic
- form change by XRPD after DVS [1]: XRPD pattern changed after DVS compared to the starting material and matched with crystalline form J
- Hygroscopicity [1]: Slightly hygroscopic (e.g., ≥0.2% and <2% weight (Slightly hygroscopic (e.g., ≥0.2% and <2% weight increase at 80% RH, 25° C.))
- solubility ([2]; water, 25 °C, water, thermodynamic from solid, water, 25° C., read-out: water solubility): ~50 µg/mL (≈ 122 µM)

SMILES: C[C@@H]1COCCN1c1cc([C@]2(O)C[C@H]3CC[C@@H](C2)O3)c2cnn(-c3cc[nH]n3)c2n1 [Crystalline form F]
- Hygroscopicity by DVS [1]: non hygroscopic
- form change by XRPD after DVS [1]: no form change
- Hygroscopicity [1]: Non hygroscopic (e.g., <0.2% weight increase at (Non hygroscopic (e.g., <0.2% weight increase at 80% RH, 25° C.))
- XRPD Pattern (solubility measured on); form in water ([2]; 25° C.): remained unchanged; also recorded: Crystalline form F
- water solubility ([2]; water, 25° C.): about 0.046 mg/mL
- solubility ([2]; water, 25° C., label = starting material, measured on the form named in the XRPD Pattern column): 46 µg/mL (≈ 112 µM)
- form after suspension in water (microscopic images) ([2]; water): unchanged
- aqueous solubility (qualitative) [3]: very low
- form change ([3]; 0.5% methylcellulose (400 cps)/0.02% sodium lauryl sulfate, room temperature, 7 days, PLM and XRPD): No form change
- XRPD of the samples after exposure vs t=0 [4]: matched with the starting materials
- DSC [4, 8]: No change
- HPLC [4, 8]: 99.94%
- TG weight loss by 170° C. [4, 8]: 4.2 wt % loss
- XRPD [4, 8]: No change
- DSC [4, 9]: No change
- HPLC [4, 9]: 99.925%
- TG weight loss by 170° C. [4, 9]: 4.2 wt % loss
- XRPD [4, 9]: No change
- DSC [4, 10]: No change
- HPLC [4, 10]: 100%
- TG weight loss by 170° C. [4, 10]: 4.2 wt % loss
- XRPD [4, 10]: No change
- DSC [4, 11]: No change
- HPLC [4, 11]: 99.94%
- TG weight loss by 170° C. [4, 11]: 4.2 wt % loss
- XRPD [4, 11]: No change
- DSC [4, 12]: No change
- HPLC [4, 12]: 99.94%
- TG weight loss by 170° C. [4, 12]: 4.2 wt % loss
- XRPD [4, 12]: No change
- DSC [4, 13]: No change
- HPLC [4, 13]: 99.922%
- TG weight loss by 170° C. [4, 13]: 4.2 wt % loss
- XRPD [4, 13]: No change
- DSC [4, 14]: No change
- HPLC [4, 14]: 100%
- TG weight loss by 170° C. [4, 14]: 4.2 wt % loss
- XRPD [4, 14]: No change
- HPLC ([4]; t = 0): 99.903%
- TG weight loss by 170° C. ([4]; t = 0): 4.7 wt % loss by

SMILES: C[C@@H]1COCCN1c1cc([C@]2(O)C[C@H]3CC[C@@H](C2)O3)c2cnn(-c3cc[nH]n3)c2n1 [Crystalline hydrogen sulfate form A]
- moisture uptake [1]: 1.42%
- Hygroscopicity by DVS [1]: slightly hygroscopic
- form change by XRPD after DVS [1]: No form change
- Hygroscopicity [1]: Slightly hygroscopic (e.g., ≥0.2% and <2% weight (Slightly hygroscopic (e.g., ≥0.2% and <2% weight increase at 80% RH, 25° C.))
- HPLC purity of solution ([5]; 0.1 mg/mL, stir, Day 3, MC/SLS with 50 mM citrate buffer (pH 4.5)): 99.82%
- HPLC purity of solution ([5]; 0.1 mg/mL, stir, Day 7, MC/SLS with 50 mM citrate buffer (pH 4.5)): 99.93%
- HPLC purity of solution ([5]; 0.1 mg/mL, w/o stir, Day 3, MC/SLS with 50 mM citrate buffer (pH 4.5)): 99.82%
- HPLC purity of solution ([5]; 0.2 mg/mL, stir, Day 3, MC/SLS with 50 mM citrate buffer (pH 4.5)): 99.89%
- HPLC purity of solution ([5]; 0.2 mg/mL, stir, Day 7, MC/SLS with 50 mM citrate buffer (pH 4.5)): 99.86%
- HPLC purity of solution ([5]; 0.2 mg/mL, w/o stir, Day 3, MC/SLS with 50 mM citrate buffer (pH 4.5)): 99.89%
- HPLC purity of solution ([5]; 0.5 mg/mL, stir, Day 3, MC/SLS with 50 mM citrate buffer (pH 4.5)): 99.91%
- HPLC purity of solution ([5]; 0.5 mg/mL, stir, Day 7, MC/SLS with 50 mM citrate buffer (pH 4.5)): 99.87%
- HPLC purity of solution ([5]; 0.5 mg/mL, w/o stir, Day 3, MC/SLS with 50 mM citrate buffer (pH 4.5)): 99.91%
- HPLC purity of solution ([5]; 1 mg/mL, stir, Day 3, MC/SLS with 50 mM citrate buffer (pH 4.5)): 99.93%
- HPLC purity of solution ([5]; 1 mg/mL, stir, Day 7, MC/SLS with 50 mM citrate buffer (pH 4.5)): 99.94%
- HPLC purity of solution ([5]; 1 mg/mL, w/o stir, Day 3, MC/SLS with 50 mM citrate buffer (pH 4.5)): 99.89%
- form assessment (precipitate, XRPD) ([5]; 1 mg/ml in buffered MC/SLS, stirred at 500 rpm, room temperature, monitored every hour): After 4 hours, crystalline form C was observed; also recorded: Precipitation of the free form, crystalline form C was observed after 3 hours
- purity of the solutions (HPLC) ([5]; 0.1-1 mg/mL, with and without stirring, 3 and 7 days, citrate buffer pH 4.5): 99.8-99.9%
- XRPD of the samples after exposure vs t=0 [4]: matched with the starting materials
- HPLC ([4]; 25° C./60% RH, t = 4 weeks, closed vial): 99.92%
- HPLC [4, 8]: 99.91%
- HPLC ([4]; 25° C./60% RH, t = 7 d, closed vial): 99.936%
- HPLC [4, 9]: 99.937%
- HPLC ([4]; 25° C./60% RH, t = 14 d, closed vial): 100%
- HPLC [4, 10]: 99.944%
- HPLC [4, 11]: 99.92%
- HPLC [4, 12]: 99.91%
- HPLC ([4]; 40° C./75% RH, t = 7 d, closed vial): 99.938%
- HPLC [4, 13]: 99.938%
- HPLC ([4]; 40° C./75% RH, t = 14 d, closed vial): 100%
- HPLC [4, 14]: 100%
- HPLC ([4]; t = 0, baseline before storage): 99.902%

SMILES: C[C@@H]1COCCN1c1cc([C@]2(O)C[C@H]3CC[C@@H](C2)O3)c2cnn(-c3cc[nH]n3)c2n1 [Crystalline hydrogen sulfate form B]
- moisture uptake [1]: 15.75%
- Hygroscopicity by DVS [1]: hygroscopic
- Hygroscopicity [1]: Hygroscopic (e.g., ≥2% and <15% weight increase (Hygroscopic (e.g., ≥2% and <15% weight increase at 80% RH, 25° C.))
- appearance after exposure [4]: remained a flowable, white powder
- solid-form stability (XRPD) [4]: no significant changes
- resulting solid form (XRPD) [6]: convert to crystalline form C; also recorded: The resulting solids were determined to be the free form, crystalline form C as confirmed by XRPD (FIG. 38)

SMILES: C[C@@H]1COCCN1c1cc([C@]2(O)C[C@H]3CC[C@@H](C2)O3)c2cnn(-c3cc[nH]n3)c2n1 [Crystalline sulfate form A]
- appearance after exposure [4]: remained a flowable, white powder
- solid-form stability (XRPD) [4]: changed to a mixture of crystalline sulfate form A+another crystalline form of a sulfate salt
- Hygroscopicity [7]: Hygroscopic
- weight increase [7]: 2.8%
